From PMC13490399, “Induced ubiquitination of the partially disordered estrogen receptor alpha via a 14-3-3 directed molecular glue-PROTAC” (Nature Communications, 2026)
Entries after “also recorded” stand apart in the source; their conditions may differ.

Columns and labels:
14-3-3/ERα complex [1] = molecular target: 14-3-3/ERα complex (Homo sapiens, UniProt P03372+P31947); test: FA 14-3-3 titration to ERα peptide with compound, with or without VCB (14-3-3/ERα stabilization); type: binding; conditions: for stabilization of the 14-3-3/ERα interaction / stabilization of the 14-3-3/ERα complex with VCB, VCB recruitment: 1 µM compound; for stabilization of the 14-3-3/ERα interaction: without VCB; for stabilization of the 14-3-3/ERα complex with VCB, VCB recruitment: 5 µM VCB
14-3-3σ/ERα complex [2] = molecular target: T1, 14-3-3σ/ERα complex (Homo sapiens, UniProt P03372+P31947); conditions: previously reported; read-out: EC50, binding to the 14-3-3σ/ERα complex; cited from earlier work
[3] = molecular target: His-tagged VCB complex / biotinylated 14-3-3γ / ERα peptide (Homo sapiens, UniProt P03372+P40337+P61981); test: TR-FRET assay of VCB recruitment to 14-3-3γ with ERα peptide; type: binding; conditions: 20 µM ERα peptide, 50 nM His-VCB, 50 nM biotinylated 14-3-3γ
[4] = molecular target: 14-3-3ζ/ERα(LBD_F) complex with CRL2^VHL (Homo sapiens, UniProt P03372+P40337+P63104, F591R/P592R/S305A); test: In vitro ubiquitination assay (SDS-PAGE, western blot, Alexa Fluor 488 ubiquitin); type: biochemical; conditions: for ubiquitination of the 14-3-3ζ/ERα(LBD_F) complex: Coomassie SDS–PAGE, quantified at 15 min
Method: Briefly, the 14-3-3ζ/ERα^(LBD_F) complex was incubated with recombinantly expressed and purified UBE1, UBE2D2, UBE2R1, CRL2^VHL and ubiquitin in the presence of ^MGPROTACs and analysed time-dependently using Coomassie-stained SDS–PAGE (Fig. 6a). Ubiquitin conjugation was rapid with higher molecular weight species evident within 5 min (Supplementary Fig. 21) and were quantified at 15 min by Coomassie-stained SDS–PAGE (Fig. 6b, c and Supplementary Fig. 22).
UBE2D2 was selected as a representative of the promiscuous UBE2D family which is known to work with Cullin RING E3 ligases such as CRL2^VHL[48]–[52]. The UBE2R family is known to be more apt at extending polyubiquitin chains[49]–[51], however recent studies have shown that UBE2R1 and UBE2R2 are also capable of installing the first ubiquitin on degrader-targeted substrates with CRL2^VHL[53],[54].
The reaction was quenched with reducing SDS sample buffer. The protein species were resolved by SDS-PAGE on a 10% bis-tris NuPAGE gel using MOPS running buffer, run at 175 V for 50 min. […] Proteins were transferred to a nitrocellulose membrane either by wet transfer at 90 V for 90 min, or using an iBlot 2 Gel Transfer Device (Invitrogen). […] For an example of presentation of the full scan blots, see Supplementary Fig. S23 or the Source Data file.

14-3-3σ/ERα complex [5] = molecular target: T1, 14-3-3σ/ERα complex; test: FA compound titration to 14-3-3σ/ERα phosphopeptide complex; type: binding; conditions: 1 µM 14-3-3σ and 10 nM ERα peptide
14-3-3/ERα complex [6] = test: 14-3-3 immunoprecipitation–mass spectrometry (IP–MS) in MCF-7 cells; conditions: MCF-7, 10 μM CV2a, 24 h; not statistically significant (p > 0.05)
NanoLuc–VHL [7] = molecular target: T2, NanoLuc–VHL (Homo sapiens, UniProt P40337); conditions: MCF-7 cells, in-cell VHL target engagement
NanoLuc–VHL [8] = molecular target: T2, NanoLuc–VHL; test: cell-based; conditions: IC50, VHL probe displacement (BRET), live (non-permeabilized) MCF-7 cells, 4 h

SMILES: COCC1CCC2C1=CC1(C)C(=C(C(C)CNC(C)=O)CC1O)C(OC1OC(CO)C(O)C(O)C1O)C(O)C2C (stereo not drawn)
- stabilization of the 14-3-3/ERα interaction (14-3-3/ERα complex [1]): stabilizes the 14-3-3/ERα interaction

SMILES: C=CC(C)(C)OC[C@H]1O[C@H](O[C@@H]2C3=C([C@H](C)CNC(C)=O)C[C@H](O)[C@]3(C)/C=C3/[C@@H](COC)CC[C@H]3[C@@H](C)[C@H]2O)[C@H](O)[C@@H](O)[C@@H]1O [FC-NAc, 3′-deacetylated fusicoccin N-acetyl]
- EC50 (14-3-3σ/ERα complex [2]): 15 nM

SMILES: C=CC(C)(C)OCC1OC(OC2C3=C(C(C)CNC(=O)CCCCCCCCCCCC(=O)NC(C(=O)N4CC(O)CC4C(=O)NCc4ccc(-c5scnc5C)cc4)C(C)(C)C)CC(O)C3(C)C=C3C(COC)CCC3C(C)C2O)C(O)C(O)C1O (stereo not drawn) [(S-OH)-CV2a]
- stabilization of the 14-3-3/ERα complex with VCB, VCB recruitment (14-3-3/ERα complex [1]): failed to recruit VCB
- stabilization of the 14-3-3/ERα interaction (14-3-3/ERα complex [1]): stabilized the 14-3-3/ERα complex similarly to CV2a
- VCB recruitment to 14-3-3, TR-FRET signal [3]: no TR-FRET signal
- ubiquitination of the 14-3-3ζ/ERα(LBD_F) complex [4]: completely abrogated ubiquitination

SMILES: C=CC(C)(C)OCC1OC(OC2C3=C(C(C)CNC(=O)CCCCCCCCCCCCCCCCCC(=O)NC(C(=O)N4CC(O)CC4C(=O)NCc4ccc(-c5scnc5C)cc4)C(C)(C)C)CC(O)C3(C)C=C3C(COC)CCC3C(C)C2O)C(O)C(O)C1O (stereo not drawn) [CV3a]
- VCB recruitment to 14-3-3, TR-FRET signal [3]: markedly reduced recruitment
- ubiquitination of the 14-3-3ζ/ERα(LBD_F) complex [4]: robust polyubiquitination

SMILES: C=CC(C)(C)OCC1OC(OC2C3=C(C(C)CNC(=O)CCOCCOCCOCCC(=O)NC(C(=O)N4CC(O)CC4C(=O)NCc4ccc(-c5scnc5C)cc4)C(C)(C)C)CC(O)C3(C)C=C3C(COC)CCC3C(C)C2O)C(O)C(O)C1O (stereo not drawn) [CV2p]
- binding to the 14-3-3/ERα complex (14-3-3σ/ERα complex [5]): highest apparent potency
- ubiquitination of the 14-3-3ζ/ERα(LBD_F) complex [4]: robust polyubiquitination
- E2 requirement of ubiquitination ([4]; UBE2D2 vs UBE2R1): observed only with UBE2D2
- ubiquitination of assembled complex vs apo-14-3-3 ([4]; up to 24 h): preferential ubiquitination of the assembled 14-3-3ζ/ERα^(LBD_F) complex over apo-14-3-3

SMILES: C=CC(C)(C)OCC1OC(OC2C3=C(C(C)CNC(=O)CCCCCCCCCCCC(=O)NC(C(=O)N4CC(O)CC4C(=O)NCc4ccc(-c5scnc5C)cc4)C(C)(C)C)CC(O)C3(C)C=C3C(COC)CCC3C(C)C2O)C(O)C(O)C1O (stereo not drawn) [CV2a]
- enhancement of ERα binding to 14-3-3, two-dimensional FA titration (14-3-3/ERα complex [1]; CV2a titration in the absence of VCB): up to 2.5 fold
- enhancement of ERα binding to 14-3-3, two-dimensional FA titration (14-3-3/ERα complex [1]; high CV2a and VCB concentrations): over 23 fold
- VCB recruitment to 14-3-3, TR-FRET signal [3]: unable to recruit VHL in the absence of ERα peptide; also recorded: extended recruitment window
- ERα enrichment in the 14-3-3 pull-down (14-3-3/ERα complex [6]): ~ 2.5 fold
- ubiquitination of the 14-3-3ζ/ERα(LBD_F) complex [4]: robust polyubiquitination
- cell permeability (NanoLuc–VHL [7]): cell-permeable

SMILES: CC(=O)N[C@H](C(=O)N1C[C@H](O)C[C@H]1C(=O)NCc1ccc(-c2scnc2C)cc1)C(C)(C)C [VH032, reference compound]
- binding to the 14-3-3/ERα complex (14-3-3σ/ERα complex [5]): did not engage the 14-3-3/ERα complex

SMILES: C=CC(C)(C)OCC1OC(OC2C3=C(C(C)CNC(=O)CCC(=O)NC(C(=O)N4CC(O)CC4C(=O)NCc4ccc(-c5scnc5C)cc4)C(C)(C)C)CC(O)C3(C)C=C3C(COC)CCC3C(C)C2O)C(O)C(O)C1O (stereo not drawn) [CV0a]
- stabilization of the 14-3-3/ERα complex with VCB, VCB recruitment (14-3-3/ERα complex [1]): negatively cooperative
- IC50 (NanoLuc–VHL [8]): > 10000 nM
